Key:
PI3K-alpha = biological target: T1, PI3K-alpha (Homo sapiens, UniProt P42336); assay: HTRF PI3K biochemical assay, alpha isoform; conditions: ratio PI3K-alpha IC50 value / PI3K-delta IC50 value
T1 construct: purchased Upstate; Millipore 14-602
Excerpt: The PI3-Kinase biochemical assays were developed to measure the intrinsic potency and compound dependent inhibition of the alpha, beta, delta, and gamma PI3K isoform enzymes. This assay was developed and further optimized from a kit produced by Upstate (Millipore catalog #33-047) and has been configured for HTS and SAR screening. Briefly, this procedure exploits the exquisite specificity and high affinity binding of enzyme reaction substrate phosphatidyl(3,4,5)triphosphate (PIP3) to the GRP1 pleckstrin homology (PH) domain to generate the signal. In the absence of PIP3, an HTRF (Homogeneous Time-Resolved Fluorescence energy transfer) complex is formed consisting of europium (Eu)-labeled anti-GST, GSTtagged GRP1-PH domain, biotin-PIP3 and streptavidin conjugated APC. The native PIP3 produced by PI3-Kinase activity disrupts in a competitive manner the biotin-PIP3 from the PH domain, resulting in the loss of energy transfer (HTRF complex) and a decrease in the signal. The format of this assay is the same for all 4 isoforms of PI3K; the differences lie in the concentration of enzyme used to achieve robust assay window. The alpha, beta, and delta assays are run at 0.5, 1, and 0.3 nM enzymes and the gamma assay is run at 5 nM enzyme. The ATP concentration is 100 uM in the alpha, beta, and delta assays and 50 uM ATP in the gamma assay. All reactions are run at 5 uM PIP2.
Compounds are serially diluted (3-fold in 100% DMSO) across a 384-well polypropylene source plated from column 3 to column 12 and column 13 to column 22, to yield 10 concentration dose response for each test compound. Columns 1, 2, 23 and 24 contain either only DMSO or pharmacological known control inhibitor.
The PI3-Kinase biochemical assay was optimized using the HTRF kit provided by Upstate (Millipore). The assay kit contains six reagents: 1) 4× Reaction Buffer; 2) native PIP2 (substrate); 3) Stop (EDTA); 4) Detection Mix A (Streptavidin-APC); 5) Detection Mix B (Eu-labeled Anti-GST plus GST-tagged PH-domain); 6) Detection Mix C.
PI3Kinase Reaction Buffer is prepared by dilution the stock 1:4 with de-ionized water. […] Enzyme addition and compound pre-incubation are initiated by the addition of 1.25 ul of PI3K (at twice its final concentration) in the 1× reaction buffer to all wells using a BioRaptor. Plates are incubated at room temperature for 15 minutes. Reactions are initiated by addition of 1.25 ul of 2× substrate solution (PIP2 and ATP in 1× reaction buffer) using BioRaptor. Plates are incubated in humidified chamber at room temperature for one hour. Reactions are quenched by addition of 0.625 uL of stop solution to all wells using the BioRaptor. The quenched reactions are then processed to detect product formation by adding 0.625 uL of Detection Solution to all wells using the BioRaptor (Detection mix C, Detection Mix A, and Detection Mix B combined together in an 18:1:1 ratio prepared 2 hours prior to use).
The loss of the HTRF signal is due to the displacement of biotinylated-PIP3 from the PH domain by the PI3K-dependent conversion of PIP2 to PIP3. This loss of signal is nonlinear with respect to both increasing product and time. This non-linear detection will impact accuracy of IC50 calculations; therefore, there is a need for a correction factor to obtain more accurate IC50 values. This correction is derived from a PIP3 standard curve run in a separate assay plate. All data were calculated using the ratio of acceptor (APC) to donor (Europium) fluorescence in each well of the assay plate. […] An IC50 was then calculated fitting the % inhibition data to the equation: % inhibition=min+(Max−min)/1+([inhibitor]/IC50)^n) where min is the % inhibition with inhibitor, max is the signal in DMSO control, and n is the Hill slope.
The determination of relative selectivity for a given compound is defined as the relative ratio of the (PI3K-alphalC50 value/PI3K-delta IC50 value).

PI3K-delta = biological target: T2, PI3K-delta (Homo sapiens, UniProt O00329); assay: HTRF PI3K biochemical assay, delta isoform; conditions: form screened (neutral or TFA salt) given, read-out: PI3Kdelta IC50
T2 construct: purchased Upstate; Millipore 14-604
T2 sequence (O00329 whole entry, canonical isoform): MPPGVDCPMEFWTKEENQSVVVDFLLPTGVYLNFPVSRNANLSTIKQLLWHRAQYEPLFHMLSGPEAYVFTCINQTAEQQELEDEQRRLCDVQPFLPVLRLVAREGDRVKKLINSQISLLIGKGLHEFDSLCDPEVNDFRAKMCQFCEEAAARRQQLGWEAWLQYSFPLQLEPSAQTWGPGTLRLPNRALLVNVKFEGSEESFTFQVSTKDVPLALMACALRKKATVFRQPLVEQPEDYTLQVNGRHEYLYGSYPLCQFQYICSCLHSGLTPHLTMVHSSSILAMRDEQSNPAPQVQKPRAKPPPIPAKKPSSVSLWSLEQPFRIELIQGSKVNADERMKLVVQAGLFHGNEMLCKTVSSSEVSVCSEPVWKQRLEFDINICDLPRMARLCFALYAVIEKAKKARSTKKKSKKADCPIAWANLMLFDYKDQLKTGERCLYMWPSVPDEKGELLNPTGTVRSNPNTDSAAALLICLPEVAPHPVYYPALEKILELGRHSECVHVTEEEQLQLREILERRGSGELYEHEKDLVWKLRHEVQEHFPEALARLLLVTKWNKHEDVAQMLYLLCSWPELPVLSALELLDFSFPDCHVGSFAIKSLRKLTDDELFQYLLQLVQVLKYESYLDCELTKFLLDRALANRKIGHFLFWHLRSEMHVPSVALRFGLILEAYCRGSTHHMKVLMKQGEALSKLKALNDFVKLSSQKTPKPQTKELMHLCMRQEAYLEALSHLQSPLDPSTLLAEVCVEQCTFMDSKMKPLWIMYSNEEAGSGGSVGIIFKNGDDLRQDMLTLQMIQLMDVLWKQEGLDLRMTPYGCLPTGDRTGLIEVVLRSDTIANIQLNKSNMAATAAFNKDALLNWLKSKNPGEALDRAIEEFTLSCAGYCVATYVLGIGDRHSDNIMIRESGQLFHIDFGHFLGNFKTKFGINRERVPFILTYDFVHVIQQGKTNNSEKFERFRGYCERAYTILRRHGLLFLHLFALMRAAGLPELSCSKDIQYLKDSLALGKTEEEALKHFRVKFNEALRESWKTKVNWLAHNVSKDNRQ
T2 sequence (P27986 whole entry partner, canonical isoform): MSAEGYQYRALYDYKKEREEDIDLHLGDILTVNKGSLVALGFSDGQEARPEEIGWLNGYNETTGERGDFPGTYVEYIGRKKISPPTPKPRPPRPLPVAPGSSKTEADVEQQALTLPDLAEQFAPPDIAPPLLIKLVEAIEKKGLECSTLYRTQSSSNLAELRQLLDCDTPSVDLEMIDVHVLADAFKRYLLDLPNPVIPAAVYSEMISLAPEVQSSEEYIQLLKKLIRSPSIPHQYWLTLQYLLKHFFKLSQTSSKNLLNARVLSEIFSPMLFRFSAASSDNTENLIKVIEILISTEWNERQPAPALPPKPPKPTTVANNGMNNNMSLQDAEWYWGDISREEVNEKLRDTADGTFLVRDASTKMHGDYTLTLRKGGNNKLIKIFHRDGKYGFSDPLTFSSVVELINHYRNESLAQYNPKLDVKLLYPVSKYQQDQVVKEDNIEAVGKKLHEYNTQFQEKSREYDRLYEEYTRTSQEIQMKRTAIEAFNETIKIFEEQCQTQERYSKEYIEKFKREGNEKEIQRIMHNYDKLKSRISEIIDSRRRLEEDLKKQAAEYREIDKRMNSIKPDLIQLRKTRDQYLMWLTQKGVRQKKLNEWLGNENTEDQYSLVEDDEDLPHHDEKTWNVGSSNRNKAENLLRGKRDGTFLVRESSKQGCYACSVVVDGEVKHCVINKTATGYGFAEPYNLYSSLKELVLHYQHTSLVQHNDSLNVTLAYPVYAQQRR

T1 sequence (P42336 whole entry, canonical isoform): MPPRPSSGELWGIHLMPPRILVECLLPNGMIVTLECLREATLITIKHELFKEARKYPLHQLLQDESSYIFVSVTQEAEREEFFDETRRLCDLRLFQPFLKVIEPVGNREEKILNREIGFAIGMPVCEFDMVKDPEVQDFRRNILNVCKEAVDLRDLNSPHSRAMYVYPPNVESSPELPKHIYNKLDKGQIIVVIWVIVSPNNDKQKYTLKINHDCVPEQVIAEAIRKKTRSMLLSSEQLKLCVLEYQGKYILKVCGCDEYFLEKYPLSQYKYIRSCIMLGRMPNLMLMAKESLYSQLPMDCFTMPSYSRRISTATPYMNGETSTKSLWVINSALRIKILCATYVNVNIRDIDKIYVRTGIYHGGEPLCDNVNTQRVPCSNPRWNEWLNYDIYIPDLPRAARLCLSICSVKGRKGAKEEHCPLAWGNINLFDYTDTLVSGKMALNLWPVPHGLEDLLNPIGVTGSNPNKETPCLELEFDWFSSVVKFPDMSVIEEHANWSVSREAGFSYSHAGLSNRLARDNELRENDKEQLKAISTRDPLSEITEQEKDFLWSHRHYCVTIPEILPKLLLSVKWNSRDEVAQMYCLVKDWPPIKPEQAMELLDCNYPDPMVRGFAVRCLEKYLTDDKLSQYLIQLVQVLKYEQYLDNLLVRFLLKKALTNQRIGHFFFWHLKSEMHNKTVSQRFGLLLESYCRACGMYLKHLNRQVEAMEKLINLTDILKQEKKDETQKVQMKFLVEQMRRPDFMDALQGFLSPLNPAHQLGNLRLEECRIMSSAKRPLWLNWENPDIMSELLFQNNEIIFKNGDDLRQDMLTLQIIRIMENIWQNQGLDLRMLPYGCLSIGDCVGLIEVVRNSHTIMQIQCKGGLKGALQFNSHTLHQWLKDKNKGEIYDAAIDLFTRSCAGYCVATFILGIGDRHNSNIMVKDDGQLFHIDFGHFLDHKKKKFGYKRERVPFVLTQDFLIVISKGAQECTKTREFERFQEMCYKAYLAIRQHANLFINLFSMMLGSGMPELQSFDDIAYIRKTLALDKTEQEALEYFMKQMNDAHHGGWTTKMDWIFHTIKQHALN
T1 sequence (P27986 whole entry partner, canonical isoform): as the sequence (P27986 whole entry partner, canonical isoform) above

Row | Structure (SMILES) | Selectivity versus PI3Kalpha (PI3K-alpha) | IC50 (PI3K-delta)
1 | CCn1c(C#Cc2ccccc2)nc2c(N[C@H]3CCN(C(=O)C4CC4)C3)ncnc21 [Compound 16-1, N-[(3S)-1-(cyclopropylcarbonyl)pyrrolidin-3-yl]-9-ethyl-8-(phenylethynyl)-9H-purin-6-amine] | >10 | 1.9 nM
2 | CCn1c(C(=O)NCC(F)(F)F)nc2c(N[C@H]3CCN(C(=O)C4CC4)C3)ncnc21 [Compound 6-3, 6-{[(3S)-1-(cyclopropylcarbonyl)pyrrolidin-3-yl]amino}-9-ethyl-N-(2,2,2-trifluoroethyl)-9H-purine-8-carboxamide] | >10 | 6.7 nM
3 | CCn1c(-c2cnc(CO)nc2)nc2c(N[C@H]3CCN(C(=O)C4CC4)C3)ncnc21 [Compound 3-39, [5-(6-{[(3S)-1-(cyclopropylcarbonyl)pyrrolidin-3-yl]amino}-9-ethyl-9H-purin-8-yl)pyrimidin-2-yl]methanol] | >10 | 3.4 nM
4 | CCn1c(C(F)F)nc2c(N[C@H]3CCN(C(=O)[C@H]4C[C@H](OC)C4)C3)ncnc21 [Compound 7-17, 8-(difluoromethyl)-9-ethyl-N-{(3S)-1-[(trans-3-methoxycyclobutyl)carbonyl]pyrrolidin-3-yl}-9H-purin-6-amine] | >10 | 74 nM
5 | CCn1c(C(=O)NCCOC)nc2c(N[C@H]3CCN(C(=O)C4CC4)C3)ncnc21 [Compound 6-2, 6-{[(3S)-1-(cyclopropylcarbonyl)pyrrolidin-3-yl]amino}-9-ethyl-N-(2-methoxyethyl)-9H-purine-8-carboxamide] | >10 | 85 nM
6 | CCn1c(C(F)F)nc2c(N[C@H]3CCN(C(=O)N4CCC4)C3)ncnc21 [Compound 7-27, N-[(3S)-1-(azetidin-1-ylcarbonyl)pyrrolidin-3-yl]-8-(difluoromethyl)-9-ethyl-9H-purin-6-amine] | >10 | 5.2 nM
7 | CCn1c(-c2cnc(C)nc2)nc2c(N[C@H]3CCCN(C(=O)C(C)C)C3)ncnc21 [Compound 2-44, 9-ethyl-N-[(3S)-1-(2-methylpropanoyl)piperidin-3-yl]-8-(2-methylpyrimidin-5-yl)-9H-purin-6-amine] | >10 | 9 nM
8 | CCC(=O)N1CC[C@H](Nc2ncnc3c2nc(-c2ccc(Cl)nc2)n3C)C1 [Compound 3-14, 8-(6-chloropyridin-3-yl)-9-methyl-N-[(3S)-1-propanoylpyrrolidin-3-yl]-9H-purin-6-amine] | >10 | 2.1 nM
9 | CCn1c(-c2cnc(C)nc2)nc2c(N[C@H]3CCN(C(=O)[C@@H]4C[C@H]4C)C3)ncnc21 [Compound 2-92, 9-ethyl-N-[(3S)-1-{[(1R,2R)-2-methylcyclopropyl]carbonyl}pyrrolidin-3-yl]-8-(2-methylpyrimidin-5-yl)-9H-purin-6-amine] | >10 | < 1 nM
10 | CCn1c(-c2cnc(C)nc2)nc2c(N[C@H]3CCN(c4cccc(NC)n4)C3)ncnc21 [Compound 4-8, 9-ethyl-N-{(3S)-1-[6-(methylamino)pyridin-2-yl]pyrrolidin-3-yl}-8-(2-methylpyrimidin-5-yl)-9H-purin-6-amine] | >10 | 2.3 nM
11 | CCn1c(-c2cnc(C)nc2)nc2c(N[C@H]3CCN(C(=O)C4(C#N)CC4)C3)ncnc21 [Compound 2-65, 1-{[(3S)-3-{[9-ethyl-8-(2-methylpyrimidin-5-yl)-9H-purin-6-yl]amino}pyrrolidin-1-yl]carbonyl}cyclopropanecarbo-nitrile] | >10 | 11 nM
12 | CCn1c(C(=O)NC2CCCCC2)nc2c(N[C@H]3CCN(C(=O)C4CC4)C3)ncnc21 [Compound 6-14, N-cyclohexyl-6-{[(3S)-1-(cyclopropylcarbonyl)pyrrolidin-3-yl]amino}-9-ethyl-9H-purine-8-carboxamide] | >10 | 17 nM
13 | CCn1c(-c2cnc(C)nc2)nc2c(N[C@H]3CCN(C(=O)C4CC4)[C@@H]3C)ncnc21 [Compound 2-94, N-[(2R,3S)-1-(cyclopropylcarbonyl)-2-methylpyrrolidin-3-yl]-9-ethyl-8-(2-methylpyrimidin-5-yl)-9H-purin-6-amine] | >10 | < 1 nM

The next lines start with the values.

Row | Selectivity versus PI3Kalpha (PI3K-alpha) | IC50 (PI3K-delta) | Structure (SMILES)
14 | 8 | < 1 nM | CCn1c(-c2cnc(C(C)(C)C)s2)nc2c(N[C@H]3CCN(C(=O)OC(C)(C)C)C3)ncnc21 [Compound 1-6, (S)-tert-butyl 3-((8-(2-(tert-butyl)thiazol-5-yl)-9-ethyl-9H-purin-6-yl)amino)pyrrolidine-1-carboxylate]
15 | >10 | 22 nM | CCn1c(C(F)F)nc2c(N[C@H]3CCN(C(=O)C4CC4)C3)ncnc21 [Compound 7-14, N-[(3S)-1-(cyclopropylcarbonyl)pyrrolidin-3-yl]-8-(difluoromethyl)-9-ethyl-9H-purin-6-amine]
16 | >10 | 1.3 nM | CCn1c(-c2cnc(C)nc2)nc2c(N[C@H]3CCN(C(=O)[C@@H]4C[C@@H]4C)C3)ncnc21 [Compound 2-90, 9-ethyl-N-[(3S)-1-{[(1R,2S)-2-methylcyclopropyl]carbonyl}pyrrolidin-3-yl]-8(2-methylpyrimidin-5-yl)-9H-purin-6-amine]
17 | >10 | 8.2 nM | CCn1c(-c2cnc(C)nc2)nc2c(N[C@H]3CCN(C(=O)N4CC[C@@H](OC)C4)C3)ncnc21 [Compound 12-15]
18 | >10 | 11 nM | CCC(=O)N1CC[C@H](Nc2ncnc3c2nc(-c2ccc(C(F)(F)F)nc2)n3C)C1 [Compound 3-1, (S)-1-(3-((9-methyl-8-(6-(trifluoromethyl)pyridin-3-yl)-9H-purin-6-yl)amino)pyrrolidin-1-yl)propan-1-one]
19 | >10 | 25 nM | CCn1c(C(=O)N[C@@H](C)C2CC2)nc2c(N[C@H]3CCN(C(=O)C4CC4)C3)ncnc21 [Compound 6-12, 6-{[(3S)-1-(cyclopropylcarbonyl)pyrrolidin-3-yl]amino}-N-[(1S)-1-cyclopropylethyl]-9-ethyl-9H-purine-8-carboxamide]
20 | >10 | 4.5 nM | CCn1c(-c2cnc(C)nc2)nc2c(NC3CN(C(=O)C4CC4)CC3(C)C)ncnc21 (racemic) [Compound 2-95, (R and S)-N-[1-(cyclopropylcarbonyl)-4,4-dimethylpyrrolidin-3-yl]-9-ethyl-8-(2-methylpyrimidin-5-yl)-9H-purin-6-amine]
21 | >10 | 510 nM | CCn1c(N2CC[C@@H](O)C2)nc2c(N[C@H]3CCN(C(=O)C4CC4)C3)ncnc21 [Compound 8-1, (3R)-1-(6-{[(3S)-1-(cyclopropylcarbonyl)pyrrolidin-3-yl]amino}-9-ethyl-9H-purin-8-yl)pyrrolidin-3-ol]
22 | >10 | 1.2 nM | CCn1ncc(-c2nc3c(N[C@H]4CCN(C(=O)C5CC5)C4)ncnc3n2C)c1C [Compound 2-7, N-[(3S)-1-(cyclopropylcarbonyl)pyrrolidin-3-yl]-8-(1-ethyl-5-methyl-1H-pyrazol-4-yl)-9-methyl-9H-purin-6-amine]
23 | >10 | 13 nM | CCn1c(-c2cnc(C)nc2)nc2c(N[C@H]3CC[C@H](C(=O)N(C)C4CC4)C3)ncnc21 [Compound 5-1, (1S,3S)-N-cyclopropyl-3-{[9-ethyl-8-(2-methylpyrimidin-5-yl)-9H-purin-6-yl]amino}-N-methylcyclopentanecarboxamide]
24 | >10 | < 1 nM | Cn1c(-c2cnc(C(C)(C)C)s2)nc2c(N[C@H]3CCN(C(=O)OC(C)(C)C)C3)ncnc21 [Compound 1-9, (S)-tert-butyl 3-((8-(2-(tert-butyl)thiazol-5-yl)-9-methyl-9H-purin-6-yl)amino)pyrrolidine-1-carboxylate]
25 | >10 | 61 nM | CCn1c(-c2cnc(C)nc2)nc2c(N[C@H]3CCN(C(=O)C(C)(C)N)C3)ncnc21 [Compound 2-80, N-[(3S)-1-(2-amino-2-methylpropanoyl)pyrrolidin-3-yl]-9-ethyl-8-(2-methylpyrimidin-5-yl)-9H-purin-6-amine]
26 | >10 | < 1 nM | CCn1c(-c2ccc(OC)nc2)nc2c(N[C@H]3CCN(C(=O)C4CCOCC4)C3)ncnc21 [Compound 3A-3, 9-ethyl-8-(6-methoxypyridin-3-yl)-N-[(3S)-1-(tetrahydro-2H-pyran-4-ylcarbonyl)pyrrolidin-3-yl]-9H-purin-6-amine]
27 | >10 | 1.2 nM | CCC(=O)N1CC[C@H](Nc2ncnc3c2nc(-c2cnc(C(C)(C)C)s2)n3C)C1 [Compound 2-14, (S)-1-(3-((8-(2-(tert-butyl)thiazol-5-yl)-9-methyl-9H-purin-6-yl)amino)pyrrolidin-1-yl)propan-1-one]
28 | >10 | 17 nM | CCn1c(-c2cnc(C)nc2)nc2c(N[C@H]3CCN(C(=O)C4(C)CC4)C3)ncnc21 [Compound 2-47, 9-ethyl-N-{(3S)-1-[(1-methylcyclopropyl)carbonyl]pyrrolidin-3-yl}-8-(2-methylpyrimidin-5-yl)-9H-purin-6-amine]
29 | >10 | 51 nM | CCC(=O)N1CC[C@H](Nc2ncnc3c2nc(CC(C)C)n3CC)C1 [Compound 7-2, 9-ethyl-8-(2-methylpropyl)-N-[(3S)-1-propanoylpyrrolidin-3-yl]-9H-purin-6-amine]
30 | >10 | 6 nM | CCn1c(-c2cnc(C)nc2)nc2c(N[C@@H]3CN(C(=O)C4CC4)C[C@H]3O)ncnc21 (racemic) [Compound 2-96, 1-(cyclopropylcarbonyl)-4-{(3R,4R) and (3S,4S)-[9-ethyl-8-(2-methylpyrimidin-5-yl)-9H-purin-6-yl]amino}pyrrolidin-3-ol]
